Results: ChEMBL document CHEMBL5325499, “Rational Design and Development of Selective BRD7 Bromodomain Inhibitors and Their Activity in Prostate Cancer” (J Med Chem, 2023)
Active and inactive are the calls of the source. The rule behind the calls is not given here.

How the values were obtained:
[1] = molecular target: T1, Bromodomain-containing protein 7 (Homo sapiens, UniProt Q9NPI1); experiment: Binding affinity to N-terminal His TEV-tagged human recombinant BRD7 bromodomain expressed in Escherichia coli BL21(DE3) by microscale thermophoresis assay
T1 sequence (Q9NPI1 whole entry): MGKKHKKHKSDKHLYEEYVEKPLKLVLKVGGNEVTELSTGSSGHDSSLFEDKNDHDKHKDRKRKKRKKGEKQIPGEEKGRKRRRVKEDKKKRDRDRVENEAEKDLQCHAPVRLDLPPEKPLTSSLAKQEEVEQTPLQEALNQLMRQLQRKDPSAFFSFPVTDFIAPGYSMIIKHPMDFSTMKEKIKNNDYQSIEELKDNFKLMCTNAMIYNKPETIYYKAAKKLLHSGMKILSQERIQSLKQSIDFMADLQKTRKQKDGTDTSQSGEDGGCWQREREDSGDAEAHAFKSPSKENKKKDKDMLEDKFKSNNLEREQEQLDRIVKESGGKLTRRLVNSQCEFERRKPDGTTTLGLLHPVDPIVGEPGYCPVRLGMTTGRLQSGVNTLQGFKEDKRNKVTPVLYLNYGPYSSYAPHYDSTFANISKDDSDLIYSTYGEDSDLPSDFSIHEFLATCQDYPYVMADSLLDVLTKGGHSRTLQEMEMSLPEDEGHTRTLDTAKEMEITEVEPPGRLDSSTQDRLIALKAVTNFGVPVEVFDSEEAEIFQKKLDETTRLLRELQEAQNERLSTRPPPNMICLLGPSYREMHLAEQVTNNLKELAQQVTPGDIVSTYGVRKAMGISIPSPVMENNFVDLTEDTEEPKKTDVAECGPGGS

[2] = molecular target: T2, Bromodomain-containing protein 9 (Homo sapiens, UniProt Q9H8M2); experiment: Displacement of NanoBRET BRD Tracer-02 from Nanoluc-fused BRD9 bromodomain (unknown origin) expressed in HEK293T cells incubated for 2 hrs by NanoBRET assay; format: cell-based
T2 sequence (Q9H8M2 whole entry): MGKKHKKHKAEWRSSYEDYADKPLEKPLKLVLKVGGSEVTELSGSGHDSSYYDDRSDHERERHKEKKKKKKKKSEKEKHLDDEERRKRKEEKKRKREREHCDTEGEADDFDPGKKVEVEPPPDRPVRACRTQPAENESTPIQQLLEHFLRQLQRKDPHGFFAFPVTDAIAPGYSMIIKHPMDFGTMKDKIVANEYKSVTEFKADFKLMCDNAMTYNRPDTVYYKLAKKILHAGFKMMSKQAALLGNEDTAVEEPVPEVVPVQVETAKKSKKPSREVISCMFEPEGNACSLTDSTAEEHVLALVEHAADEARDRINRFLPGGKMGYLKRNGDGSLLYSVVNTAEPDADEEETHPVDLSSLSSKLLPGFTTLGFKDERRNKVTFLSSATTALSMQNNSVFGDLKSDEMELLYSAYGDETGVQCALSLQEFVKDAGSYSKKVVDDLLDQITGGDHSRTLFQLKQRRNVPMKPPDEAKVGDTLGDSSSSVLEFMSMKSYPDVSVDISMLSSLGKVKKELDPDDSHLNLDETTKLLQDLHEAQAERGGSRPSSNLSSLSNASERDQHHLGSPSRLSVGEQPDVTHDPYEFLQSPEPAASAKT

[3] = molecular target: T1, Bromodomain-containing protein 7; experiment: Displacement of NanoBRET BRD Tracer-02 from Nanoluc-fused BRD7 bromodomain (unknown origin) expressed in HEK293T cells incubated for 2 hrs by NanoBRET assay; format: cell-based
[4] = cells; settings: Homo sapiens, HEK-293T, 2 h
Description: Displacement of NanoBRET BRD Tracer-02 from Nanoluc-fused BRPF1B bromodomain (unknown origin) expressed in HEK293T cells incubated for 2 hrs by NanoBRET assay

[5] = molecular target: T1, Bromodomain-containing protein 7; experiment: Binding affinity to human partial length BRD7 bromodomain (125 to 254 residues) expressed in mammalian expression system by BROMOscan KdELECT analysis
[6] = Selectivity ratio of IC50 for antiproliferative activity against human AR-negative PC-3 cells to IC50 for antiproliferative activity against human AR-positive LNCaP cells; format: functional
[7] = molecular target: T3, Bromodomain-containing protein 7 (Homo sapiens) (UniProt Q9NPI1); experiment: Inhibition of human partial length BRD7 bromodomain (125 to 254 residues) expressed in mammalian expression system at 2 uM by BROMOscan analysis
T3 sequence (whole entry): T1 sequence (Q9NPI1 whole entry)

[8] = molecular target: T1, Bromodomain-containing protein 7; experiment: Displacement of FAM-labeled BI-FAMb from N-terminal His TEV-tagged human recombinant BRD7 bromodomain expressed in Escherichia coli BL21(DE3) by competitive fluorescence polarization assay
[9] = molecular target: T4, Bromodomain-containing protein 9 (Homo sapiens) (UniProt Q9H8M2); experiment: Inhibition of BRD9 binding to chromatin in HEK293T cells at 10 uM incubated for 24 hrs by immunoblot analysis; format: cell-based
T4 sequence (whole entry): T2 sequence (Q9H8M2 whole entry)

[10] = tested on: LNCaP; experiment: Antiproliferative activity against AR-positive human LNCaP cells assessed as inhibition of cell growth at 1 uM measured after 4 days by CellTiter-Glo luminescent assay; format: functional, cell-based; settings: time 4.0 day
[11] = tested on: CWR22R; experiment: Antiproliferative activity against human 22Rv1 cells transfected with empty vector assessed as inhibition of cell growth at 2.5 uM measured after 4 days by CellTiter-Glo luminescent assay; format: functional; design: scale not given: the % may be the effect or the level left; settings: time 4 day
[12] = tested on: CWR22R; experiment: Antiproliferative activity against human 22Rv1 cells transfected with shBRD7-2 assessed as inhibition of cell growth at 2.5 uM measured after 4 days by CellTiter-Glo luminescent assay; format: functional; design: scale not given: the % may be the effect or the level left; settings: time 4 day
[13] = molecular target: T2, Bromodomain-containing protein 9; experiment: Binding affinity to human partial length BRD9 bromodomain (130 to 259 residues) expressed in bacterial expression system by BROMOscan KdELECT analysis
[14] = tested on: CWR22R; experiment: Antiproliferative activity against human 22Rv1 cells transfected with shBRD7-2 assessed as inhibition of cell growth at 5 uM measured after 4 days by CellTiter-Glo luminescent assay; format: functional; design: scale not given: the % may be the effect or the level left; settings: time 4 day
[15] = tested on: PC-3; experiment: Antiproliferative activity against AR-negative human PC-3 cells assessed as inhibition of cell growth at 5 uM incubated for 4 days by CellTiter-Glo luminescent assay; format: functional, cell-based; settings: time 4.0 day
[16] = tested on: PC-3; experiment: Antiproliferative activity against AR-negative human PC-3 cells assessed as inhibition of cell growth at 1 uM measured after 4 days by CellTiter-Glo luminescent assay; format: functional, cell-based; settings: time 4.0 day
[17] = tested on: CWR22R; experiment: Antiproliferative activity against human 22Rv1 cells transfected with shBRD7-1 assessed as inhibition of cell growth at 2.5 uM measured after 4 days by CellTiter-Glo luminescent assay; format: functional; design: scale not given: the % may be the effect or the level left; settings: time 4 day
[18] = molecular target: T4, Bromodomain-containing protein 9 (Homo sapiens); experiment: Binding affinity to N-terminal His TEV-tagged human recombinant BRD9 bromodomain expressed in Escherichia coli BL21(DE3) by microscale thermophoresis assay
[19] = tested on: CWR22R; experiment: Antiproliferative activity against human 22Rv1 cells transfected with shBRD7-1 assessed as inhibition of cell growth at 5 uM measured after 4 days by CellTiter-Glo luminescent assay; format: functional; design: scale not given: the % may be the effect or the level left; settings: time 4 day
[20] = tested on: CWR22R; experiment: Antiproliferative activity against human 22Rv1 cells transfected with empty vector assessed as inhibition of cell growth at 5 uM measured after 4 days by CellTiter-Glo luminescent assay; format: functional; design: scale not given: the % may be the effect or the level left; settings: time 4 day
[21] = molecular target: T2, Bromodomain-containing protein 9; experiment: Displacement of FAM-labeled BI-FAMb from N-terminal His TEV-tagged human recombinant BRD9 bromodomain expressed in Escherichia coli BL21(DE3) by competitive fluorescence polarization assay
[22] = Selectivity ratio of IC50 for antiproliferative activity against human AR-negative PC-3 cells to IC50 for antiproliferative activity against human AR-positive C-42 cells; format: functional
[23] = molecular target: T4, Bromodomain-containing protein 9 (Homo sapiens); experiment: Inhibition of human partial length BRD9 bromodomain (130 to 259 residues) expressed in bacterial expression system at 2 uM by BROMOscan analysis
[24] = species: Homo sapiens; experiment: Binding affinity to His TEV-tagged human recombinant BRPF1B expressed in Escherichia coli BL21(DE3) assessed as protein stabilization by measuring increase in melting temperature at 1 uM measured for 120 mins by differential scanning fluorimetry
[25] = species: Homo sapiens; experiment: Binding affinity to His TEV-tagged human recombinant BRPF1B expressed in Escherichia coli BL21(DE3) assessed as protein stabilization by measuring increase in melting temperature at 25 uM measured for 120 mins by differential scanning fluorimetry

Row | SMILES | Kd [1] | IC50 ([2]; read-out: IC50) | IC50 ([3]; read-out: IC50) | IC50 [4] | Kd [5] | inhibition [7] | IC50 [8] | Ki [8] | inhibition [9] | Kd [13] | Activity [18] | IC50 [21] | Ki [21] | inhibition [23] | Ratio IC50 [6] | Activity [11] | Activity [15] | Activity [20] | Ratio IC50 [22] | further results
1 | Cc1cc(C)cc(-c2cn(C)c(=O)c3ccccc23)c1 |  |  |  |  |  |  | 8100 nM | 860 nM |  |  |  | 4000 nM | 340 nM |  |  |  |  |  |  | 
2 | CCn1cc(-c2cccc(C(F)(F)F)c2)c2sc(C(=N)NC3CCS(=O)(=O)CC3)cc2c1=O |  |  |  |  |  |  |  |  | Active |  |  |  |  |  |  |  |  |  |  | 
3 | COc1ccccc1C(=O)Nc1cc2c(cc1N1CCCCC1)n(C)c(=O)n2C |  |  |  |  |  |  |  |  |  |  |  |  |  |  |  |  |  |  |  | IC50 ([2]; hek293t): Not Active; IC50 ([3]; hek293t): Not Active; Activity [24]: Active

The next lines start with results.

Row | Kd [1] | IC50 ([2]; read-out: IC50) | IC50 ([3]; read-out: IC50) | IC50 [4] | Kd [5] | inhibition [7] | IC50 [8] | Ki [8] | inhibition [9] | Kd [13] | Activity [18] | IC50 [21] | Ki [21] | inhibition [23] | SMILES | Ratio IC50 [6] | Activity [11] | Activity [15] | Activity [20] | Ratio IC50 [22] | further results
4 | 2200 nM | 3200 nM | 1100 nM | > 10000 nM | 340 nM | Active | 5400 nM | 1300 nM | inactive | 655 nM | inactive | > 300000 nM | > 20000 nM | inactive | COc1ccc(-c2ccc3c(C)cc(=O)n(C)c3c2)c(OC)n1 | 3 | 41% | Active | 73% | 3 | Activity [10]: Active; Activity [12]: 22%; Activity [14]: 38%; Activity [16]: inactive; Activity [17]: 13%; Activity [19]: 28%
5 |  |  |  |  |  |  | 2900 nM | 310 nM |  |  |  | 1500 nM | 130 nM |  | COc1ccc(-c2cn(C)c(=O)c3ccccc23)c(OC)n1 |  |  |  |  |  | 
6 | 1200 nM | 3300 nM | 850 nM | 2800 nM | 290 nM | Active | 1600 nM | 170 nM | inactive | 650 nM | inactive | 2700 nM | 230 nM | inactive | COc1ccc(-c2ccc3c(C)cc(=O)n(C)c3c2)c(C)n1 | 3 | 26% | Active | 52% | 3 | Activity [25]: Active
